US20250000814A1 (DONG-A ST CO., LTD., priority 2021, published 2025)
Structures can show the parent of a compound that is named as a salt.

Tests used:
[1] = cited from earlier work
[2] = Solubility evaluation for the solubilizer propylene glycol monocaprylate; settings: for Propylene glycol monocaprylate solubility: 25° C., 24 hours, 50 mg as memantine free base added to 1 mL
Protocol: The resulting mixture was treated in a shaking constant temperature bath at 25° C. for 24 hours.
<Liquid Chromatography Conditions>

[3] = Oil phase skin permeability screening, Franz diffusion cell; assay type: in vitro ADME; settings: 200 ul of 50 mg/mL salt in propylene glycol monocaprylate, human cadaver skin; for Skin penetration rate: 7 days
Protocol: A pH 7.4 phosphate buffer containing 10% ethanol and 0.02% sodium azide as an aqueous solution was added to the receptor chamber of the Franz diffusion cell, and with the temperature maintained at 32±0.5° C., it was rotated at 600 rpm and stirred.

Compound: CC12CC3CC(C)(C1)CC(N)(C3)C2 [free base, Memantine free base]
- log P, the partition coefficient [1]: 3.28

Compound: CC12CC3CC(C)(C1)CC(N)(C3)C2.CC12CC3CC(C)(C1)CC(N)(C3)C2.O=C(O)CCCCCC(=O)O [hemi-pimelate, Memantine Hemi-Pimelate]
- Propylene glycol monocaprylate solubility [2]: <5 mg/mL

Compound: CC12CC3CC(C)(C1)CC(N)(C3)C2.CC12CC3CC(C)(C1)CC(N)(C3)C2.O=C(O)CCCCCCC(=O)O [hemi-suberate, Memantine Hemi-Suberate]
- Propylene glycol monocaprylate solubility [2]: <5 mg/mL

Compound: CC12CC3CC(C)(C1)CC(N)(C3)C2 [hydrochloride, Memantine hydrochloride, reference compound]
- solubility at 24 h ([2]; 25 °C, oil or lipid, thermodynamic from solid): < 5000 µg/mL

Compound: CC(=O)CCC(=O)O.CC12CC3CC(C)(C1)CC(N)(C3)C2 [levulinate, Memantine Levulinate, reference compound]
- Skin permeability for 7 days [3]: 3661 ug/cm2
- Skin penetration rate [3]: 22 ug/cm2/hr

Compound: Memantine Hemi-Fumarate
- Propylene glycol monocaprylate solubility [2]: <5 mg/mL

Compound: Memantine Hemi-Malate
- Propylene glycol monocaprylate solubility [2]: <5 mg/mL

Compound: Memantine Hemi-Maleate
- Propylene glycol monocaprylate solubility [2]: <5 mg/mL

Compound: Memantine Hemi-Naphthalene Disulfonate
- Propylene glycol monocaprylate solubility [2]: <5 mg/mL

Compound: Memantine Myristate
- Skin permeability for 7 days [3]: 1083 ug/cm2
- Skin penetration rate [3]: 6 ug/cm2/hr
